# In patent publication US8686039B2, “Aqueous nanoemulsion composition containing conjugated linoleic acid” (Hwail Pharmaceutical Co., Ltd., priority 2009, dated 2014):
# Legend:
# [1] = test system: leptin secreted from adipocytes; experiment: Leptin secretion (ELISA); format: cell-based, mouse; conditions: 10 μg/mL, FIG. 8
# Description: 3T3-L1 pre-adipocytes were cultured in Dulbecco's Modified Eagle's Medium (DMEM) containing 10% fetal bovine serum, 100 unit/mL penicillin and 10 μg/mL streptomycin at 37° C., 5% CO2 incubator. When 70 to 80% of cells were confluent, cells were pre-differentiated with DMEM containing dexamethazone, pioglitazone, IBMX (3-isobutyl-1-methylxanthin), insulin and FBS which are differentiation inducers, and then were differentiated with DMEM containing insulin, pioglitazone and FBS. After differentiation, lipids were matured with growth medium containing 10% FBS and insulin. Samples were dissolved in DMSO and treated in 10 μg/mL of the final concentration. An experiment was carried out to check whether the secretion amount of leptin, which is known as an appetite-related hormone, is regulated. The amount of leptin secreted from adipocytes was measured by enzyme-linked immunosorbent assay (ELISA) on media collected after treatment of adipocytes with sample. 100 μl of rabbit anti-mouse leptin IgG was aliquoted into an ELISA plate. […] Color development was elicited by the use of alkaline phosphatase conjugated substrate kit, and then absorbance at 490 nm was measured by an ELISA reader (SUNRISE, TECAN, Austria). […]
# 3T3-L1 pre-adipocytes [2] = format: cell-based; conditions: mouse, 24 h, 10 μg/mL
# Description: (§1) 3T3-L1 pre-adipocytes were cultured in Dulbecco's Modified Eagle's Medium (DMEM) containing 10% fetal bovine serum, 100 unit/mL penicillin and 10 μg/mL streptomycin at 37° C., 5% CO2 incubator. When 70 to 80% of cells were confluent, cells were pre-differentiated with DMEM containing dexamethazone, pioglitazone, IBMX (3-isobutyl-1-methylxanthin), insulin and FBS which are differentiation inducers, and then were differentiated with DMEM containing insulin, pioglitazone and FBS. After differentiation, lipids were matured with growth medium containing 10% FBS and insulin. Samples were dissolved in DMSO and treated in 10 μg/mL of the final concentration.
# 1×10^4 pre-adipocytes were dispensed into each well of 96-well plate, and each sample was treated. Then cells were incubated at 37° C., 5% CO2 incubator for 24 hours. After 24 hours, MTT (in phosphate buffered saline, final concentration was […]) was treated, and then cells were incubated for 4 hours. Formed formazan crystal was dissolved with DMSO:ethanol (1:1) and absorbance at 540 nm was measured by a microplate reader (SUNRISE, TECAN, Austria). Cell viability was determined by the ratio of absorbance value of sample treating group to absorbance value of control group, and the results are represented in FIG. 3. […] Thus, there is no statistically significant difference from that of the control group.
# 3T3-L1 pre-adipocytes [3] = experiment: Lipolysis effect (Oil red O staining, neutral lipids); format: cell-based; conditions: 10 μg/mL, 8th day after differentiation, vs control group, FIGS. 4 and 5
# Description: as §1
# 1×10^5 cells were dispensed into each well of 6-well plate and differentiated. On the 8th day after differentiation, media were removed, and cells were washed twice with ice-cold PBS. Cells were fixed with 10% formalin at room temperature for 1 hour, stained with 0.2 Oil red O (in isoprophanol) for 30 minutes, and then washed with distilled water. Isopropanol was added thereto to dissolve oil droplets, and then the content of neutral lipids was measured as absorbance at 490 nm. The results are represented in FIGS. 4 and 5.
# 3T3-L1 pre-adipocytes [4] = experiment: Adipogenesis inhibitory effect (Oil red O staining); format: cell-based; conditions: Mus musculus, 10 μg/mL, treated with MDI medium 48 hours, 8th day after differentiation, FIG. 6, read-out: Content of neutral lipids decreased compared with the control group (adipogenesis inhibitory effect)
# Description: as §1, with “concentration. 1×10^5 cells were dispensed into each well of 6-well plate. When 70% of cells were confluent, cells were treated with MDI medium (differentiation medium) and each sample at the same time, then incubated for 48 hours. On the 8th day after differentiation, the content of neutral lipids was measured with Oil red O staining. The results are represented in FIG. 6.” for “concentration.”
# 3T3-L1 pre-adipocytes [5] = experiment: Glycerol quantification (free glycerol reagent); format: cell-based; conditions: 10 μg/mL, medium after 24 hours treatment, FIG. 7
# Description: as §1
# Glycerol was quantified with an enzyme reaction method by using free glycerol reagent (Sigma, USA). 10 μl of medium, collected after treatment of cells with sample for 24 hours was added to 0.8 mL of Free glycerol reagent which was pre-warmed at 37° C., and then the reaction of the mixture was carried out in 37° C. water bath for 5 minutes. For quantification of glycerol, standard glycerol (25 μg/10 μl) was reacted in the same manner as above, and then absorbance at 540 nm was measured. The content of glycerol was calculated with the following formula.
# male Sprague-Dawley rats [6] = experiment: Serum cholesterol and neutral lipid in rats fed experimental diet; format: in vivo; conditions: HF diet + 2% test material, 5 weeks, FIG. 11
# Source text: (§2) 28 male Sprague-Dawley rats (5 weeks, 145±5 g) were purchased from the Orient Company (Korea) as experimental animals. Rats were adapted with a lab-chow diet in pellet form for a week. Other obesity-induction groups except the normal group (NC) were fed high fat diet ad libitum for 5 weeks to induce obesity, and then rats were divided into four groups (7 rats per group) including the normal group and bred for 5 weeks as represented in FIG. 13.
# (§3) AIN-76 diet (Teklad, USA) was used as a base of the experimental diet. Test materials were added at the level of 2% of high fat diet. In the CLA group and N-CLA group, 2% of CLA and N-CLA were added, respectively, while reducing corn oil. Experimental diet and water were supplied ad libitum. During the breeding period, the experimental diets were kept in a 4° C. refrigerator. Each of the animals was placed in an empty cage under a specific environmental condition, at 25±2° C. with a relative humidity of 60±5%, a lighting cycle of 12 hr light/12 hr dark. Body weight and the amount of diet intake were measured at constant time at 2-day intervals during the overall experimental period. Feed efficiency ratio (FER) was calculated by dividing the amount of body weight gain during the experimental period with the amount of diet intake during the same period, and the results are represented in Table 16.
# (§4) After breeding, rats were fasted for 12 hours and then primarily anesthetized with ether. […] Liver was isolated, collected, rapidly frozen in liquid nitrogen and stored at −70° C. until sample analysis for measurement of enzyme activity and lipid quantification. […]
# Quantification of total serum cholesterol was performed by using a test solution (Asanpharm Co., Korea) utilizing Allain et al. (1974)'s enzyme method. […] Thus, to quantify both CE and free cholesterol, CE was converted into fatty acid and free cholesterol by cholesterol esterase. […] H2O2 was mixed with peroxidase, phenol and 4-amino-antipyrine to emit red color, and then absorbance at 500 nm was measured. […]
# The content of HDL-cholesterol was measured with kit reagent (Asanpharm Co., Korea). […]
# male Sprague-Dawley rats [7] = experiment: Body weight, diet intake and FER in high fat diet obesity-induced rats; format: in vivo; conditions: HF diet + 2% test material
# Source text: as §2, §3
# male Sprague-Dawley rats [8] = experiment: Organ and white adipose tissue weight in rats fed experimental diet; format: in vivo; conditions: HF diet + 2% test material, 5 weeks
# Source text: as §2, §3
# After breeding, rats were fasted for 12 hours and then primarily anesthetized with ether. […] Collected blood was centrifuged at 3,000×g, 4° C. for 15 minutes to obtain serum, and then obtained serum was stored at −70° C. until sample analysis. Organ tissues (liver, heart, kidney, epididymal white adipose tissue and perirenal white adipose tissue) of the experimental animals were washed with PBS (phosphate buffered saline) several times, and then weighed after removing surface moisture. Liver was isolated, collected, rapidly frozen in liquid nitrogen and stored at −70° C. until sample analysis for measurement of enzyme activity and lipid quantification. The results of measuring the weight of epididymal white adipose tissue and perirenal white adipose tissue per unit body weight are represented in FIG. 10.
# male Sprague-Dawley rats [9] = experiment: Liver tissue lipid content in rats fed experimental diet; format: in vivo; conditions: HF diet + 2% test material, 5 weeks, vs HFD group, FIG. 12
# Source text: as §2
# as §3, with “During the breeding period, the experimental diets were kept in a 4° C. refrigerator. Each of the animals was placed in an empty cage under a specific environmental condition, at 25±2° C. with a relative humidity of 60±5%, a lighting cycle of 12 hr light/12 hr dark.” left out
# as §4
Compound,Amount of leptin secretion decreased compared with the control group [1],Cell viability (3T3-L1 pre-adipocytes [2]),Content of neutral lipids (lipolysis effect) (3T3-L1 pre-adipocytes [3]),inhibition at 10 µg/mL (3T3-L1 pre-adipocytes [4]),"Content of glycerol (secretion of glycerol, lipolysis) (3T3-L1 pre-adipocytes [5])","Content of serum neutral lipid (triglyceride, TG) (male Sprague-Dawley rats [6])",Serum total cholesterol (TC) (male Sprague-Dawley rats [6]; vs HFD group),"Serum low density lipid (LDL) (male Sprague-Dawley rats [6]; vs HFD group, calculated by Friedewald method)","Body weight in the 5th week (male Sprague-Dawley rats [7]; 5th week, FIG. 9)",Body Weight Gain (male Sprague-Dawley rats [7]; 5 weeks),FER (food efficiency ratio) = body weight gain/food intake (male Sprague-Dawley rats [7]; 5 weeks),Food Intake (male Sprague-Dawley rats [7]; 5 weeks),"Body weight change during the experiment period (male Sprague-Dawley rats [7]; weeks 2 onward, vs HFD group, FIG. 9)",Organ Weight: Heart (male Sprague-Dawley rats [8]),Organ Weight: Kidney (male Sprague-Dawley rats [8]),Organ Weight: Liver (male Sprague-Dawley rats [8]),"Weight of epididymal white adipose tissue and perirenal white adipose tissue per unit body weight (male Sprague-Dawley rats [8]; vs HFD group, FIG. 10)",Content of neutral lipids in liver tissue (male Sprague-Dawley rats [9]),Content of total cholesterol in liver tissue (male Sprague-Dawley rats [9])
CCCCCCCCCCC[C@@H](C[C@@H]1OC(=O)[C@H]1CCCCCC)OC(=O)[C@H](CC(C)C)NC=O [Orlistat],11.6%,103%,tendency of decreasing neutral lipids,12.5%,1.57 µg/mL,,,,,,,,,,,,,,
conjugated linoleic acid [CLA],8.3%,,tendency of decreasing neutral lipids,,tendency of increasing the secretion of glycerol,lower than HFD group with statistical significance,decreased compared with the HFD group with statistical significance,decreased compared with the HFD group with statistical significance,not different from that of the HFD group with statistical significance,2.89 ± 0.55 g/day,0.11 ± 0.02,28.18 ± 0.21 g/day,lower than in the HFD group from the 2nd week to the 4th week,2.43 ± 0.17 mg/g B.W.,5.35 ± 0.24 mg/g B.W.,44.69 ± 2.57 mg/g B.W.,slightly lighter than in the HFD group without statistical significance,statistically significant decrease compared with the HFD group,statistically significant decrease compared with the HFD group
